Earlier results, collected in US20040166503A1, “Methods for gene expression profiling” (priority 2004, published 2004).

Assays:
[1] = test system: resistant HL60 human promyelocytic cell line; settings: inhibition of glutathione synthesis by BSO
[2] = test system: cancer cell lines and tumors; settings: wide variety of cancer cell lines and tumors
[3] = test system: M7609 xenografts expressing different levels of GST P1-1; settings: murine xenografts of M7609; responses positively correlated with GST P1-1 expression
[4] = test system: bone marrow stem cells and peripheral white blood cell
[5] = test system: c-Jun N-terminal kinase (JNK); settings: during TLK286 induced apoptosis
[6] = test system: extracellular signal-regulated kinase (ERK); settings: during TLK286 induced apoptosis
p38 kinase = settings: during TLK286 induced apoptosis

SMILES	effect on sensitivity of resistant cells to TLK286 [1]	cytotoxicity [2]	antitumor activity in vivo [3]	myelosuppressive effect (toxicity) [4]	JNK activation [5]	ERK activation [6]	p38 kinase activation (p38 kinase)
CCCCS(=N)(=O)CCC(N)C(=O)O (stereo not shown) [BSO]	increases the sensitivity						
N[C@@H](CCC(=O)N[C@@H](CS(=O)(=O)CCOP(=O)(N(CCCl)CCCl)N(CCCl)CCCl)C(=O)N[C@@H](C(=O)O)c1ccccc1)C(=O)O [TLK286, gamma-glutamyl-alpha-amino-beta(2-ethyl-N,N,N′,N-tetrakis(2-chloroethyl)phosphorodiamidate)-sulfonyl-propionyl-(R)-(−)phenylglycine]		cytotoxic	antitumor activity has also been observed	only mildly toxic	activated	not	not
